Consider 87 molecules from a melting point compilation (Tetko et al.; mined from patent text by program, amines drawn as free bases though some values may be those of a salt).

Molecules are shown by their SMILES.

The melting point is the temperature of the solid-liquid transition. Molecule `COc1cc2nc(N3CCN(C(=O)C=Cc4cccc(C(F)(F)F)c4)CC3)nc(N)c2cc1OC` returned a melting point of 225 to 227 °C.

On to `C[C@H](CCC=O)[C@H]1CC[C@@]2(C)C3=C(CC[C@]12C)[C@@]1(C)CCC(=O)C(C)(C)C1CC3` (some centres not stated), for which the melting point was 110 to 115 °C. Under `O=C1COc2ccc(CCCCCCc3ccc4c(c3)NC(=O)CO4)cc2N1` stands 219 to 225 °C. The molecule `O=C(c1ccc(Nc2ccnc3cc(C(F)(F)F)ccc23)cc1)N1CCC(S(=O)c2ccc(F)cc2)CC1` (configuration not stated) gave a melting point of 215 to 216 °C. The result for `CCCCCCCCOC(=O)c1cnc(C(=O)O)cn1` reads 142 to 143 °C; that for `CC(C)(C)c1ccccc1N1CCN(C(=O)c2ccccn2)CC1`, 140 to 145 °C; that for `CNC(=S)NS(=O)(=O)c1cc(CCNC(=O)c2cnc3ccccc3c2)ccc1OCCOCC(F)(F)F`, 115 to 120 °C.

On to `COC(=O)[C@H](CCCCNC(=O)OC(C)(C)C)NC(=O)c1ccccc1`, for which the melting point lay within 108 to 109 °C. The result for `CC(C)=NN=c1scc(C)n1C` reads 139 to 140 °C. Under `Nc1cc(-c2ccnc3c(C(=O)c4cccs4)cnn23)ccc1F` stands 241 to 242 °C; under `CC[C@H](C)[C@H](NC(=O)OCc1ccccc1)C(=O)Nc1nncs1` (racemic), 145 to 149 °C; under `CC(c1cc(F)ccc1O)c1cc(Cl)cc(Cl)c1O` (configuration not stated), 150 °C. `Nc1ccc(C2CCNCC2)cc1` returned a melting point of 85 to 87 °C. As to `COc1cc(OC)nc(NC(=O)NS(=O)(=O)c2cccc3c2SC(C)(C)C3)n1`, the melting point was in the range of 190 to 192 °C. As for `Oc1nc2cc(F)ccc2n2cnnc12`, the melting point was more than 300 °C. The result for `CCCN1CCC=C(c2cccc3[nH]cc(Br)c23)C1` reads 156 °C; that for `O=Cc1cc2ccc3c4ccccc4ccc3c2o1`, 123 °C; that for `CCCCCCCCCCCCCCCCCCOC(=O)Cc1cc(C(C)(C)C)c(O)c(C)c1C`, 79 to 81 °C.

For `CCS(=O)Cc1cccc(-c2nc(=O)c3ccccc3s2)n1` (configuration not stated), the melting point lay within 188 to 190 °C.

Molecule `COCCCNC(=O)Nc1ccc(N2CCOCC2)cc1C(=O)NCC1CCN(C(c2ccccc2)c2ccccc2)CC1` gave a melting point of 175 to 176 °C. Under `O=C(c1cccs1)c1cnn2c(-c3cccc(-c4nnn(CCN5CCCC5)n4)c3)ccnc12` stands 98 °C; under `O=Cc1ccc(CO)cn1`, 75 °C. Under `CN1C(=O)C(c2cccc(-c3cccnc3F)c2)(c2cc(C=NO)n(CCCF)c2)N=C1N` (configuration not stated) stands 119 to 123 °C; under `COC(=O)c1sc([N+](=O)[O-])cc1N=NN(C)C`, 128 to 130 °C. The result for `O=C1C(Cc2ccccc2)SC(=S)N1c1nc2ccccc2s1` (configuration not stated) reads 187 to 189 °C; that for `COc1cc(C(C)C)c2c(c1)S(=O)(=O)N(COc1cc(C(F)(F)F)nn1-c1ncccn1)C2=O`, 133 to 134 °C; that for `CC(=O)c1ccc2c(c1)CCS2(=O)=O`, 54 to 56 °C. In the case of `N#CC(SCCc1ccc2c(c1)OCO2)C(=O)O` (configuration not stated), the melting point lay in the range of 106 to 107 °C. The result for `COc1ccc(CNc2nc(OCc3ccccn3)ncc2C(=O)c2cc(OC)c(OC)c(OC)c2)cc1Cl` reads 129 °C. Under `CCCc1nn(CC)c2c(=O)[nH]c(-c3cc(S(=O)(=O)N4CCN(CCO)CC4)ccc3OCC)nc12` stands 191 to 193 °C; under `COC(=O)Cc1coc2c(O)cccc12`, 58 to 59 °C; under `CC(=O)c1ccc2c(c1)C(NC(=NC#N)Nc1ccccc1)C(O)C(C)(C)O2` (configuration not stated), 182 to 184 °C.

In turn, `CC(C)=CCN1Cc2cc(Cl)cc3[nH]c(=S)n(c23)C[C@@H]1C` gave a melting point of 186 °C. Under `O=S(=O)(c1ccc(-n2ncnc2-c2cnccn2)cc1)C(F)F` stands 152 to 154 °C. The result for `Cn1cc(-c2ccc(C(=O)N3Cc4cccn4Cc4ccccc43)cc2)cn1` reads 200 to 201 °C.

`COC(=O)CC[C@H](NC(=O)c1ccc(N(C)CCc2c(NC(C)=O)nc(NC(C)=O)[nH]c2=O)cc1)C(=O)OC` had a melting point of 168 to 175 °C. As to `COc1nnc2cc(Cl)ccc2n1`, the melting point stood at 122 °C. The result for `COCCc1nnc(NC(=O)C(c2ccccc2)c2ccccc2)o1` reads 114 to 115 °C; that for `CC(C)CC12CCC3C4CCC(=O)C=C4CCC3C1CCC2O` (configuration not stated), 124 to 126 °C; that for `COCOc1cc(F)ccc1-c1cc(-c2cccc([N+](=O)[O-])c2)c(C#N)c(NC(=O)c2ccno2)n1`, 161 to 162 °C.

For the molecule `Cn1c(-c2ccc(-c3ccccn3)cc2)cnc1[C@H](Cc1ccccn1)N(C=O)c1cc2cc(Cl)ccc2o1`, the melting point was in the range of 175 to 180 °C.

`CCN(CC)CCOCCc1ccc2c(c1)OCO2` showed a melting point of 83 to 84 °C. Turning to `COc1c(C)c2c(c(OS(C)(=O)=O)c1C/C=C(/Cl)CBr)C(=O)OC2`, the melting point lay within 146 to 148 °C. The result for `CC(=O)Nc1ccccc1OCCCO` reads 78 to 80 °C. The result for `Cc1ccc2c(O)ccnc2c1` reads 233 to 235 °C; that for `Cc1cc(C2=NOC(c3cc(Cl)cc(Cl)c3)(C(F)(F)F)C2O)ccc1C(=O)O` (configuration not stated), 215 to 217 °C; that for `CCCCc1nc(=O)n2nc(-c3ccccc3)cc2[nH]1`, 234 °C. In the case of `O=C(CCl)N(CCc1[nH]c2ccccc2c1-c1ccccc1)CC1CC1`, the melting point is 104 to 106 °C. Under `NCc1cccc(C2CCN(c3cc4c(cc3F)c(=O)c(C(=O)O)cn4C3CC3)C2)c1` (configuration not stated) stands 250 to 253 °C; under `C=C1CCCc2c(C(=O)OCC)n(C)c3cccc1c23`, 45 to 49 °C; under `CN1C(=O)N2C(=NC1(C)C)N(C(=O)Nc1ccc(Cl)cc1)c1ccccc12`, 206 to 211 °C.

`O=C(c1ccc(F)cc1)c1ccc(C(=O)c2ccc(F)cc2)cc1` had a melting point of 218 to 220 °C. Molecule `Nc1cc(N2CCCC2)c2c(Cl)ccc3c2c1C(=O)N(O)C3=O` registered a melting point of 211 to 213 °C. Under `Cc1cc(C)nc(Sc2ccnc3cc(Cl)cc(Cl)c23)n1` stands 182 to 183 °C. The result for `CCCCSc1nc(O)ns1` reads 78 °C; that for `COc1ccc2c(-c3ccccc3)c(C(=O)c3ccc(Cl)cc3)sc2c1`, 115 °C; that for `CCN1CCc2ccc(Nc3ncc(Cl)c(N[C@@H]4CCCC[C@H]4NC(C)=O)n3)cc2CC1`, 248 to 250 °C.

Molecule `NS(=O)(=O)N1CCC(C2c3ncc(Br)cc3CCc3cc(Cl)cc(Cl)c32)CC1` (single isomer, unassigned; (+)) had a melting point of 133 to 134 °C.

Regarding `N#Cc1ccc(Cl)cc1NC(CCO)c1ccccc1` (configuration not stated), the melting point lay in the range of 88 to 90 °C.

As for `Cc1cn(C(C)C(=O)Nc2ccccc2)nc1-c1ccccc1` (configuration not stated), the melting point lay within 79 to 82 °C. The result for `COc1cc(C(=O)NS(=O)(=O)c2ccccc2C)ccc1Cc1cn(C)c2ccc(NC(=O)NC3CCCC3)cc12` reads 212 to 215 °C. Under `CC(C)NC(=O)N1CC(Oc2ccc(C(F)(F)F)cc2)C1` stands 151 to 152 °C. Under `CC(C)OC(=O)NC12CC1CN(Cc1ccccc1)C2` (configuration not stated) stands 88 °C. Consider `Cc1c(Cl)cnc(N)c1F`, for which the melting point lay in the range of 136 to 138 °C. `Clc1ccc(OC2CN(C(c3ccccc3)c3ccccc3)C2)cc1` came in with a melting point of 113 to 114 °C. In the case of `CN(C(=O)OCC(Cl)(Cl)Cl)C1CN(C(=O)Nc2ccc(C(F)(F)F)cc2)N=C1c1ccc(Cl)cc1` (configuration not stated), the melting point was in the range of 169 to 170 °C. Under `O=C(O)Cc1ccc(Cl)cc1OCCc1ccccc1` stands 102 to 104 °C; under `CC(C)(C)OC(=O)C(C1NC(C(=O)O)C2(CCOCC2)S1)N1C(=O)c2ccccc2C1=O` (configuration not stated), 199 to 200 °C; under `CCOC(=O)N1CCCC(NC(=O)c2ccc(Cl)c(Cl)c2)C12CCCCC2` (configuration not stated), 74 to 77 °C. Under `O=C(CC1CCCCC1)Nc1ccc2oc3c(c2c1)CCCCCC3` stands 180 to 181 °C; under `COC(CN(C)C(=O)Nc1nnc(C(C)Oc2cc(Cl)cc(Cl)c2)s1)OC` (configuration not stated), 149 to 152 °C; under `CC(C)OC(=O)c1ccc2c(c1)ncn2-c1cccc(-c2cccnc2Cl)c1`, 147 to 150 °C.

Turning to `CCCC(=O)ONC(=N)c1ccc(NC(=O)CCCC(=O)Nc2ccc(C(=N)NOC(=O)CCC)cc2)cc1`, the melting point fell in the range of 194 to 196 °C. Under `C=CCSc1cn(C)cc(-c2cccc(C(F)(F)F)c2)c1=O` stands 74 to 75 °C. The result for `O=C(CF)Nc1ccccc1` reads 77 to 78.5 °C; that for `COc1cc(OC)nc(Oc2ccc3ccccc3c2C=O)n1`, 123 to 125 °C. The result for `CC(C)(C)OC(=O)N[C@H](Cc1ccccc1)C(=O)N1CCC[C@H]1C(=O)NC(Cc1ccc(C#N)cc1)P(=O)(Oc1ccccc1)Oc1ccccc1` (some centres not stated) reads 85 to 90 °C. In turn, `CC(=O)OC1CSC(Oc2cncc(-c3c(C)n[nH]c3C)c2)C(OC(C)=O)C1OC(C)=O` (configuration not stated) returned a melting point of 95 °C. The result for `Oc1ccc2c(c1)OCC(c1ccccc1)C2c1ccc(OCCN2CCCCC2)cc1` (configuration not stated) reads 168 to 170 °C; that for `COc1cc2c3ccc(OC)c(OC)c3n(C(=O)c3cccc([N+](=O)[O-])c3)c2cc1OC`, 187 to 191 °C. As for `COc1cc(-c2nn(C(C)(C)C)c(N)c2C(N)=O)cc(OC)c1OC`, the melting point lay within 180 to 192 °C.

Consider `COc1ccc(CS(=O)(=O)c2ccc(S(N)(=O)=O)s2)cc1`, for which the melting point is 198 to 203 °C. The result for `COC(=O)C(C(C)C)N(C)S(=O)(=O)c1ccc(-c2ccc(NC(=O)c3cc4ccccc4o3)cc2)cc1` (configuration not stated) reads 67 to 69 °C; that for `CCc1cccc(C)c1NC(=O)C(C)Br` (configuration not stated), 181 to 182 °C. In turn, `CNC(=O)Nc1cc(C2(C)CC2)on1` returned a melting point of 144 to 147 °C. The result for `O=C(CCl)NN1CCOC(c2ccccc2)(c2ccccc2)CC1` reads 150 to 152 °C; that for `Clc1ccc2c(c1)CCc1cccnc1C2=C1CCN(Cc2cccnc2)CC1`, 115 °C.
